Consider 17 compounds from patent US5741798A, “2-benzyl-4-sulfonyl-4H-isoquinolin-1,3-diones and their use as antiinflammatory agents” (priority 1997, dated 1998).

Experiment [1] deals with T1, Human cyclooxygenase 2 (COX-2) (Homo sapiens, UniProt P35354).
T1 sequence (P35354 18-604): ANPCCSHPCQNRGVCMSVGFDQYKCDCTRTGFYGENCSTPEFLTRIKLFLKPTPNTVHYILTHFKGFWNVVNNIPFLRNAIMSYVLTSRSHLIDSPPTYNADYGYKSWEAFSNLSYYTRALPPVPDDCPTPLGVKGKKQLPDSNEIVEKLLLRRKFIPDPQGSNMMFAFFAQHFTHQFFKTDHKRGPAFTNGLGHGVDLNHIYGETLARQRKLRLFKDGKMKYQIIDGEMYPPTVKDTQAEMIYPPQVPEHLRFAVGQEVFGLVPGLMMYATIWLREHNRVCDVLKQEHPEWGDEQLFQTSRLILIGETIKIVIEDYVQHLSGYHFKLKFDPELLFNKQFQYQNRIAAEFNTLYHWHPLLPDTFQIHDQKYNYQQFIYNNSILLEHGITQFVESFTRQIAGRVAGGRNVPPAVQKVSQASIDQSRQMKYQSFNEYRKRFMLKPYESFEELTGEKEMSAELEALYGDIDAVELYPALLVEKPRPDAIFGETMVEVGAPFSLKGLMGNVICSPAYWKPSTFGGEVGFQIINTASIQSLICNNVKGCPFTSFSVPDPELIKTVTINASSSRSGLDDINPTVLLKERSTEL
The experiment is described as follows: COX-2 inhibition, microsomal assay. The conditions noted are these: 20 min, read-out: % Inhibition of COX Enzymes in Microsomal Assays, COX-2. As for the experimental part: (§1) Human cyclooxygenase 1 and 2 are expressed in a baculovirus expression system using High 5 insect cells. Microsomal fractions prepared from the cells are stored at -80° C. The assays are performed at room temperature in phosphate buffered saline. After incubating the COX-1 or COX-2 microsomes with hematin (2 μM), phenol (0.5 mM) and reduced glutathione (1 mM) for 5 minutes, inhibitor or DMSO vehicle is added and allowed to incubate for 20 minutes. Arachidonic acid (2 μM) is added and after 20 minutes the reaction is stopped by the addition of HCl (0.1 N HCl final concentration).
(§2) The inhibitory activities against COX-1 and COX-2 of the compounds described in the above Synthetic Examples were determined using the two in vitro assays described above.

For experiment [2], the target named is Human cyclooxygenase 1 (COX-1) (Homo sapiens, UniProt P23219). The experiment in a line: COX-1 inhibition, microsomal assay. The conditions noted are these: 20 min, read-out: % Inhibition of COX Enzymes in Microsomal Assays, COX-1. The method, then:
as §1, §2

For another experiment, the target named is T2, human recombinant COX-2 (Homo sapiens, UniProt P35354).
T2 construct: expressed in transfected cells; host or cells: Cos-A2 cells, stably transfected
T2 sequence (P35354 18-604): T1 sequence (P35354 18-604)
The experiment is described as follows: COX-2 inhibition, COS cell assay. The experiment is classed as cell-based. As to conditions: for inhibition at 1 µM / inhibition at 10 µM / inhibition at 0.1 µM: COS, read-out: Inhibition of COX Enzymes in COS Cell Assays, COX-2 % inhibition; for IC50: COS cells, COX-2, read-out: Inhibition of COX Enzymes in COS Cell Assays, COX-2 IC50. As for the experimental part:
(§3) Cos-A2 cells stably transfected with human recombinant COX-1 or COX-2 are cultured in 96 well tissue culture plates with Dulbecco's Modified Eagle Medium supplemented with 10% fetal bovine serum, glutamine (2 mM), penicillin (50 U/mL), streptomycin ([…]) and geneticin (400 μg/mL). Media is removed from confluent monolayers and the cells are washed twice with Hank's buffered saline solution. Fresh HBSS is added, with or without inhibitor, and the cells are incubated for 30 minutes at 37° C. Arachidonic acid (30 μM) is then added and the cells are incubated for an additional one hour at 37° C. Individual experiments represent a mean of triplicate wells for control and inhibitor doses. Supernatents are removed and stored at -80° C. until assayed for PGE2 by EIA (Amersham).
as §2

The target in another experiment is T3, human recombinant COX-1 (Homo sapiens, UniProt P23219).
T3 construct: expressed in transfected cells; host or cells: Cos-A2 cells, stably transfected
The experiment is described as follows: COX-1 inhibition, COS cell assay. The experiment is classed as cell-based. The conditions noted are these: for inhibition at 1 µM / inhibition at 10 µM / inhibition at 0.1 µM: COS, read-out: Inhibition of COX Enzymes in COS Cell Assays, COX-1 % inhibition. As for the experimental part: as §3, §2

T3 sequence (P23219 24-599): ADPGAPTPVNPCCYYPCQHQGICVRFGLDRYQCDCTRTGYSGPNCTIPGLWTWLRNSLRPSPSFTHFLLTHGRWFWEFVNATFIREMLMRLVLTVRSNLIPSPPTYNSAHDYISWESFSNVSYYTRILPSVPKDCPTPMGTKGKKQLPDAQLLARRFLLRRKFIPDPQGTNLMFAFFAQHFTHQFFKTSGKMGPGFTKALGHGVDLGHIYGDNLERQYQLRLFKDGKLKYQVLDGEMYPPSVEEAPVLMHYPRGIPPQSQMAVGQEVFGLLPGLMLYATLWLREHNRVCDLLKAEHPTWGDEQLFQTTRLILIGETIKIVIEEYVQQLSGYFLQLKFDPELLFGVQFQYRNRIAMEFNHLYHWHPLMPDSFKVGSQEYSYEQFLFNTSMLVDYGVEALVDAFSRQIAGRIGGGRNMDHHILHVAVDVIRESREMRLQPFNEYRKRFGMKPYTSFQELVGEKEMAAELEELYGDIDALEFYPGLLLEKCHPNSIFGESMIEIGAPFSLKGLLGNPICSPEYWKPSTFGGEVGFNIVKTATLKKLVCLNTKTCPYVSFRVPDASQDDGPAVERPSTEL
Human cyclooxygenase 1 (COX-1), sequence (P23219 24-599): as above

As to `O=C1c2ccccc2C(S(=O)(=O)c2ccc3ccccc3c2)C(=O)N1Cc1ccccc1` (stereo not shown) [Example 15], in experiment [1], the inhibition at 0.1 µg/mL was -29%, the inhibition at 1 µg/mL was determined as 14% and the inhibition at 10 µg/mL was 34%. For the same compound, in experiment [2], the inhibition at 0.1 µg/mL turned out to be 23%, the inhibition at 1 µg/mL worked out at 24% and the inhibition at 10 µg/mL is 57%.
With `COc1ccc(S(=O)(=O)C2C(=O)N(Cc3ccccc3)C(=O)c3ccccc32)cc1` (stereo not shown) [Example 16], in experiment [1], the inhibition at 0.1 µg/mL worked out at 21%, the inhibition at 1 µg/mL is 74% and the inhibition at 10 µg/mL was found to be 97%. Further, in experiment [2], the inhibition at 0.1 µg/mL was 33%, the inhibition at 1 µg/mL was determined as 81% and the inhibition at 10 µg/mL is 93%.
In the case of `CC(C)S(=O)(=O)C1C(=O)N(Cc2ccccc2F)C(=O)c2ccccc21` (stereo not shown) [Example 2, 2-(2-Fluorobenzyl)-4-(1-methylethyl)sulfonyl-4H-isoquinoline-1,3-dione], at human recombinant COX-2, the inhibition at 1 µM is 45% and the inhibition at 10 µM was found to be 46%. Further, in experiment [1], the inhibition at 0.1 µg/mL was found to be 10%, the inhibition at 1 µg/mL was determined as 37% and the inhibition at 10 µg/mL was 49%. In experiment [2], the inhibition at 0.1 µg/mL was -1%, the inhibition at 1 µg/mL was found to be 14% and the inhibition at 10 µg/mL turned out to be 18%. At human recombinant COX-1, the inhibition at 1 µM came out at 33% and the inhibition at 10 µM worked out at 39%.
Turning to `CC(C)S(=O)(=O)C1C(=O)N(Cc2ccc(Cl)cc2)C(=O)c2ccccc21` (stereo not shown) [Example 7], on human recombinant COX-2, the inhibition at 0.1 µM amounted to 26%, the inhibition at 1 µM amounted to 52% and the inhibition at 10 µM was determined as 74%. Besides, in experiment [1], the inhibition at 0.1 µg/mL is 3%, the inhibition at 1 µg/mL was 62% and the inhibition at 10 µg/mL turned out to be 67%. Also, in experiment [2], the inhibition at 0.1 µg/mL is -3%, the inhibition at 1 µg/mL came out at 4% and the inhibition at 10 µg/mL turned out to be 36%. Also, on human recombinant COX-1, the inhibition at 0.1 µM came to 6%, the inhibition at 1 µM was determined as 46% and the inhibition at 10 µM turned out to be 72%.
In the case of `CC(C)S(=O)(=O)C1C(=O)N(Cc2cccc(Cl)c2)C(=O)c2ccccc21` (stereo not shown) [Example 6], in experiment [1], the inhibition at 0.1 µg/mL is 10%, the inhibition at 1 µg/mL was found to be 27% and the inhibition at 10 µg/mL was found to be 27%. In experiment [2], the inhibition at 0.1 µg/mL was -10%, the inhibition at 1 µg/mL came to 19% and the inhibition at 10 µg/mL is 30%.
Consider `Cc1ccc(S(=O)(=O)C2C(=O)N(Cc3ccccc3)C(=O)c3ccccc32)cc1` (stereo not shown) [Example 14], for which, in experiment [1], the inhibition at 0.1 µg/mL was -13%, the inhibition at 1 µg/mL is 63% and the inhibition at 10 µg/mL stood at 100%. Further, in experiment [2], the inhibition at 0.1 µg/mL stood at 59%, the inhibition at 1 µg/mL was 93% and the inhibition at 10 µg/mL is 100%.
Take `O=C1c2ccccc2C(S(=O)(=O)c2ccc(Br)cc2)C(=O)N1Cc1ccccc1` (stereo not shown) [Example 13]: in experiment [1], the inhibition at 0.1 µg/mL amounted to 28%, the inhibition at 1 µg/mL was found to be 92% and the inhibition at 10 µg/mL is 100%. Further, in experiment [2], the inhibition at 0.1 µg/mL turned out to be 44%, the inhibition at 1 µg/mL came to 74% and the inhibition at 10 µg/mL came out at 100%.
For `O=C1c2ccccc2C(S(=O)(=O)c2ccc(Cl)cc2)C(=O)N1Cc1ccccc1` (stereo not shown) [Example 19], in experiment [1], the inhibition at 0.1 µg/mL is 59%, the inhibition at 1 µg/mL came out at 89% and the inhibition at 10 µg/mL turned out to be 93%. In addition, in experiment [2], the inhibition at 0.1 µg/mL turned out to be 52%, the inhibition at 1 µg/mL came to 71% and the inhibition at 10 µg/mL was 89%.
`O=C1c2ccccc2C(S(=O)(=O)c2ccccc2)C(=O)N1Cc1ccccc1` (stereo not shown) [Example 12]: in experiment [2], the inhibition at 0.1 µg/mL came out at 17%, the inhibition at 1 µg/mL was 59% and the inhibition at 10 µg/mL came out at 74%. On human recombinant COX-1, the inhibition at 0.1 µM stood at 22%, the inhibition at 1 µM worked out at 61% and the inhibition at 10 µM was 85%.
Turning to `O=C1c2ccccc2C(S(=O)(=O)c2ccc([N+](=O)[O-])cc2)C(=O)N1Cc1ccccc1` (stereo not shown) [Example 20], in experiment [1], the inhibition at 0.1 µg/mL stood at 20%, the inhibition at 1 µg/mL was 37% and the inhibition at 10 µg/mL came to 46%. Also, in experiment [2], the inhibition at 0.1 µg/mL was found to be 21%, the inhibition at 1 µg/mL amounted to 41% and the inhibition at 10 µg/mL came out at 62%.
As to `CCCS(=O)(=O)C1C(=O)N(Cc2ccccc2)C(=O)c2ccccc21` (stereo not shown) [Example 3], in experiment [1], the inhibition at 0.1 µg/mL is -6%, the inhibition at 1 µg/mL was 15% and the inhibition at 10 µg/mL amounted to 27%. Besides, in experiment [2], the inhibition at 0.1 µg/mL is -9%, the inhibition at 1 µg/mL was 22% and the inhibition at 10 µg/mL worked out at 33%.
Take `CC(C)S(=O)(=O)C1C(=O)N(Cc2ccc(F)c(F)c2)C(=O)c2ccccc21` (stereo not shown) [Example 9]: the IC50 is 200 nM at human recombinant COX-2 and 570 nM on human recombinant COX-1 (COS cells, COX-1, read-out: Inhibition of COX Enzymes in COS Cell Assays, COX-1 IC50). For the same compound, the values for the inhibition at 0.1 µg/mL in experiment [1] and in experiment [2] were 8% and 10%, respectively. In addition, the inhibition at 1 µg/mL in experiment [1] is 75%; in experiment [2] it was 17%. Besides, the figures for the inhibition at 10 µg/mL in experiment [1] and in experiment [2] were 80% and 57%, respectively.
On to `O=C1c2ccccc2C(S(=O)(=O)c2cccs2)C(=O)N1Cc1ccccc1` (stereo not shown) [Example 21], for which, on human recombinant COX-2, the inhibition at 0.1 µM was 65%, the inhibition at 1 µM was 80% and the inhibition at 10 µM came to 89%. In experiment [1], the inhibition at 0.1 µg/mL worked out at 12%, the inhibition at 1 µg/mL is 46% and the inhibition at 10 µg/mL was determined as 48%. In experiment [2], the inhibition at 0.1 µg/mL was found to be 17%, the inhibition at 1 µg/mL amounted to 14% and the inhibition at 10 µg/mL worked out at 67%. In addition, on human recombinant COX-1, the inhibition at 0.1 µM is 35%, the inhibition at 1 µM amounted to 67% and the inhibition at 10 µM was 94%.
For `CC(C)(C)c1ccc(S(=O)(=O)C2C(=O)N(Cc3ccccc3)C(=O)c3ccccc32)cc1` (stereo not shown) [Example 17], in experiment [1], the inhibition at 0.1 µg/mL came out at 20%, the inhibition at 1 µg/mL stood at 12% and the inhibition at 10 µg/mL was 39%. Besides, in experiment [2], the inhibition at 0.1 µg/mL amounted to 17%, the inhibition at 1 µg/mL was found to be 20% and the inhibition at 10 µg/mL worked out at 45%.
Regarding `CCCCS(=O)(=O)C1C(=O)N(Cc2ccccc2)C(=O)c2ccccc21` (stereo not shown) [Example 4], in experiment [1], the inhibition at 0.1 µg/mL is 0%, the inhibition at 1 µg/mL amounted to 30% and the inhibition at 10 µg/mL amounted to 20%. Moreover, in experiment [2], the inhibition at 0.1 µg/mL worked out at 4%, the inhibition at 1 µg/mL amounted to 15% and the inhibition at 10 µg/mL was 15%.
`O=C1c2ccccc2C(S(=O)(=O)c2ccc(F)cc2)C(=O)N1Cc1ccccc1` (stereo not shown) [Example 18]: in experiment [1], the inhibition at 0.1 µg/mL turned out to be 33%, the inhibition at 1 µg/mL came out at 66% and the inhibition at 10 µg/mL is 81%. In experiment [2], the inhibition at 0.1 µg/mL turned out to be 48%, the inhibition at 1 µg/mL came to 76% and the inhibition at 10 µg/mL is 92%.
As to `CC(C)S(=O)(=O)C1C(=O)N(Cc2ccc(F)cc2)C(=O)c2ccccc21` (stereo not shown) [Example 8], the IC50 on human recombinant COX-2 turned out to be 90 nM. In experiment [1], the inhibition at 0.1 µg/mL is -1%, the inhibition at 1 µg/mL is 68% and the inhibition at 10 µg/mL was 86%.

A word on the inhibition: it is the change of the read-out against control, counted positive when it falls. The term IC50 denotes the concentration that inhibits the measured activity by half.
